In patent US11168249B1, “Luminescent polydentate polycyclic compounds for metal ions” (priority 2012, dated 2021):
Entries after “also recorded” stand apart in the source; their conditions may differ. Blank lines part the entries; values can stand above or below the compound they belong to.

How the values were obtained:
Assay type in all cases: physicochemical
[1] = Fluorescent properties of L4 in water/chloroform two-layer vials with metal ions and acid (FIG. 8)
Excerpt: FIG. 8 is a set of pictures showing the fluorescent properties of compound L4 in two different solvents (water and chloroform) in the presence of different metal ions o and acid (NaCl, CaCl2), HCl) under ordinary light and under UV light (365 nm). The concentration of L4 was 0.00032 M. Vial #2 used aqueous sodium chloride, Vial #3 included aqueous calcium chloride, and Vial #4 included dilute hydrochloric acid.
FIG. 8 is a set of pictures showing the fluorescent properties of compound L4 in two different solvents (water and chloroform) under ordinary light and under UV light (365 nm). Vial #1 contains only L4, Vial #2 contains sodium chloride, Vial #3 contains calcium chloride, and Vial #4 contains hydrochloric acid. The two layers in each vial were mixed, then allowed to separate and observed. […] There is no reaction to sodium in Vial #2. […] It is believed that this migration will only occur with a metal ion of the proper size and sufficiently high ionic charge. […] Interference from acid is, therefore, not expected to cause false positive results.

[2] = Normalized emission spectra of D1 (L) and complexes in the solid state (FIG. 23)
Excerpt: The y-axis is luminescence intensity, and the x-axis is wavelength in nanometers. The free ligand L had maximum emission at 457 nm. The L+Ca complex had maximum emission at 519 nm. The L+Zn complex had maximum emission at 556 nm. Al/H^+ complex had maximum emission at 651 nm. This latter complex is a protonated ligand obtained by using aluminum perchlorate, which produced acid in situ.
The curve labeled Al/H+(N) was obtained by using protonated ligand obtained by treating the ligand with aluminum perchlorate.

[3] = Normalized emission spectra of D1 (L) and complexes in dry acetonitrile (FIG. 22); details: D1 0.00013 M, metal ion 0.00012 M
Description: The concentration of D1 was 0.00013 M, and the metal ion concentration was 0.00012 M. The metal ions are added as perchlorates or acetates. The y-axis is luminescence intensity, and the x-axis is wavelength in nanometers. The free ligand L had maximum emission at 470 nm. The L+Ca(II) complex had maximum emission at 526 nm. The L+Zn(II) complex had maximum emission at 581 nm. The L+trifluoroacetate complex had maximum emission at 592 nm. The L+H^+ complex had maximum emission at 691 nm. The L+H^+ complex was formed using aluminum chloride dissolved in TFA and diluted with dry MeCN, and it is likely that HCl was produced in situ, and that this is protonating the ligand.

[4] = Fluorescence color of D1 in acetonitrile solution with one equivalent of metal perchlorate under UV 365 nm (FIG. 4)
Description: FIG. 4 is a set of pictures showing the change in color of derivative compound D1 in the absence and presence of various metal ions (Ca^2+, Zn^2+, H^+, Pb^2+) in solution (perchlorate salts), both under ordinary light and under UV light (365 nm). The solvent was acetonitrile, the concentration of D1 was 0.0001 M, and one equivalent of the metal perchlorate salt was added. For H^+, an aluminum perchlorate salt was used, which produced acid (H^+) that protonated the ligand.
Under UV light, the D1 solution alone is blue. With Ca(II), the solution is green. With Zn(II), the solution is yellow-orange. With Al(III) perchlorate, the solution is red. This red color resulted from an unexpected hydrolysis reaction that produced acid (H^+). The protonated ligand provided the red color. With Pb(II), the solution is black, i.e. the blue color that would other be visible has been quenched.

[5] = Fluorescence color in the solid state with and without metal ions or acids under UV 365 nm (FIGS. 2, 5, 6, 7, 24, 25)
Excerpt: FIG. 2 is a set of pictures showing the change in color of derivative compound D1 in the absence and presence of various metal ions (Ca^2+, Sr^2+, Cd^2+, Zn^2+, Ba^2+, Ha^+, Hb^+, Ni^2+) in the solid state. The sample labeled Ha^+ was isolated from a KOH/ethanol solution after treatment with trifluoroacetic acid (TFA). The sample labeled Hb^+ was obtained by using aluminum perchlorate, which produced acid (H^+) due to an unexpected hydrolysis reaction with the medium.
FIG. 5 is a set of pictures showing the change in color of derivative compound D1 in the absence and presence of various metal ions or acids (Ca^2+, Zn^2+, H^+, Pb^2+) in the solid state, both under ordinary light and under UV light (365 nm). Perchlorate salts were used. When the aluminum salt was used, an unexpected hydrolysis produced acid (H^+) which protonated the ligand.
FIG. 6 is a set of pictures showing the change in color of derivative compound D1 in the absence and presence of various metal ions or acids (H^+, Co^2+, Ni^2+, Cu^2+) in the solid state, both under ordinary light and under UV light (365 nm). Perchlorate salts were used.
FIG. 7 is a set of pictures showing the change in color of derivative compound D1 in the absence and presence of various metal ions or acids (AgNO3, Hg^2+, Pb^2+) and of the free compound D7 (no metal ion) in the solid state, both under ordinary light and under UV light (365 nm).
FIG. 24 is a set of pictures showing the change in color of complexes of D1 with perchlorate salts of various metal ions (Ca^2+, Sr^2+, Cd^2+) in the solid state, both under ordinary light and under UV light (365 nm).
FIG. 25 is a set of pictures showing the change in color of complexes of D1 with salts of various metal ions (Zn^2+, Ba^2+, Ha^+, Hb^+) in the solid state, both under ordinary light and under UV light (365 nm). The zinc and barium are perchlorate salts. The complex labeled “From KOH/EtOH/TFA” was obtained from a solution of KOH and ethanol upon addition of TFA. It is unclear what is causing the orange color, but it is most likely acid, therefore the label “Ha^+”. The HClO4 complex was obtained by using aluminum perchlorate, which produced acid (H^+) that protonated the ligand.
With no metal, the D1 powder was blue. With Ca^2+, the powder was a blue-green color. With Sr^2+, the powder was a green color. With Cd^2+, the powder was a yellow-green color. With Zn^2+, the powder was a yellow color. With Ba^2+, the powder was a dark yellow color. […] Powder isolated from solutions containing AlCl3 or Al(ClO4)3 was a red color. […] With Ni^2+, the powder was black (i.e. fluorescence was quenched).
FIG. 5 is a set of pictures showing fluorescence of D1 in the solid state, under ordinary light (top row) and under UV light (365 nm) (bottom row). In column A, the free ligand sample (i.e. no metal ions) is blue. In column B with Ca(II), the powder is green. In column C with Zn(II), the powder is yellow. In column D with Al(III), the powder is red. Again, this appears to be due to acid (H^+). In column E with Pb(II), the powder is non-fluorescent.
FIG. 6 is a set of pictures showing fluorescence of D1 in the solid state, under ordinary light (top row) and under UV light (365 nm) (bottom row). In the first column ligand treated with La(III) perchlorate produced a powder that fluoresces red. […] In the second column with Co(II), the powder is non-fluorescent. In the third column with Ni(II), the powder is non-fluorescent. In the fourth column with Cu(II), the powder is non-fluorescent.
FIG. 7 is a set of pictures showing fluorescence of D1 in the solid state, under ordinary light (top row) and under UV light (365 nm) (bottom row). In the first column with silver nitrate (AgNO3), the powder is non-fluorescent. […] In the third column with Pb(II), the powder is non-fluorescent. In the fourth column, the free compound D7 is shown, and is non-fluorescent. […]

[6] = Fluorescence color of D1 in acetonitrile solution with and without metal ions under UV 365 nm (FIG. 1); details: D1 0.004 M
Description: FIG. 1 is a set of pictures showing the change in color of derivative compound D1 in the absence and presence of various metal ions (Mg^2+, Sr^2+, Ca^2+, Cd^2+, Zn^2+, H^+) in solution. The solvent was acetonitrile, the concentration of D1 was 0.004 M, and the metal ion concentration was 0.04 M. The metal ions are added as perchlorates or acetates. The solutions were exposed to UV light having an excitation wavelength of 365 nm.
With no metal, the D1 solution was blue. With Mg^2+, the solution was a blue-green color. With Sr^2+, the solution was a green-blue color. With Ca^2+, the solution was a green color. With Cd^2+, the solution was an olive green color. With Zn^2+, the solution was a yellow-orange color. With H^+, the solution was a red color.

layer in which the compound is present ([1]; Vial #1, only L4 0.00032 M): chloroform layer
migration of the complex between layers ([1]; Vial #3, aqueous calcium chloride): migrated to the water layer
SMILES: CCCCc1c2c(nc3c1CCc1cc4cccc(OCC(=O)OC)c4nc1-3)-c1nc3c(OCC(=O)OC)cccc3cc1CC2 [Compound L4, 8-butyl-1,15-bis(methoxycarbonylmethoxy)-diquinolino[2,3-c:3′,2′-h]-6,7,9,10-tetrahydroacridine]
response to sodium ([1]; Vial #2, aqueous sodium chloride, L4 0.00032 M): no reaction
fluorescent response ([1]; Vial #3, aqueous calcium chloride (Ca^2+), UV 365 nm): intense blue
fluorescence ([1]; Vial #4, dilute hydrochloric acid, UV 365 nm): green

maximum emission [2]: 457 nm
maximum emission [3]: 470 nm
SMILES: COc1cccc2cc3c(nc12)-c1nc2c(OC)cccc2cc1CC3 [Compound D1, 8,8′-Dimethoxy-3,3′-dimethylene-2,2′-biquinoline]
color of solution under UV light ([4]; D1 0.0001 M alone): blue
color of solution under UV light ([4]; D1 0.0001 M, Al(III) perchlorate (produced acid H^+, protonated ligand)): red
color of solution under UV light ([4]; D1 0.0001 M, one equivalent Ca(II) perchlorate): green
color of solution under UV light ([4]; D1 0.0001 M, one equivalent Pb(II) perchlorate): black
color of solution under UV light ([4]; D1 0.0001 M, one equivalent Zn(II) perchlorate): yellow-orange
fluorescence of powder ([5]; free compound (no metal ions)): blue
fluorescence of powder ([5]; from AlCl3 or Al(ClO4)3 (acid H^+, protonated ligand; Hb^+/HClO4)): red
fluorescence of powder ([5]; isolated from ethanolic KOH treated with TFA (Ha^+)): orange
fluorescence of powder ([5]; treated with La(III) perchlorate (acid H^+, protonated ligand)): red
fluorescence of powder ([5]; with Ca^2+): blue-green
fluorescence of powder ([5]; with Cd^2+): yellow-green
fluorescence of powder ([5]; with Co(II)): non-fluorescent
fluorescence of powder ([5]; with Cu(II)): non-fluorescent
fluorescence of powder ([5]; with Hg(II)): barely fluoresces
fluorescence of powder ([5]; with Ni^2+): black; also recorded: non-fluorescent
fluorescence of powder ([5]; with Pb(II)): non-fluorescent
fluorescence of powder ([5]; with Sr^2+): green
fluorescence of powder ([5]; with Zn^2+): yellow
fluorescence of powder ([5]; with silver nitrate (AgNO3)): non-fluorescent
color of solution ([6]; Ca^2+ 0.04 M): green
color of solution ([6]; Cd^2+ 0.04 M): olive green
color of solution ([6]; H^+): red
color of solution ([6]; Mg^2+ 0.04 M): blue-green
color of solution ([6]; Sr^2+ 0.04 M): green-blue
color of solution ([6]; Zn^2+ 0.04 M): yellow-orange
color of solution ([6]; no metal): blue
